System: Ninety four (94) cell lines and PBMC
Assay: Cell viability assay, SRB staining, 94 cell lines and PBMC (Example 7, Experiment 2)
Type: cell-based
Description: Ninety four (94) cell lines were seeded at a density varying from 500 to 7000 cells/well depending on their growth characteristics. PBMC were seeded at the density 50,000-100,000 cells/well. Cells were incubated for 48 h prior to compound treatment. Compound 1 and DON were evaluated at a concertation range of 1 nM up to 100 μM. Compound 1 dilutions in DMSO and DON dilutions in PBS were performed in 96-well 0.5 mL plates (Greiner Bio-One, Germany). Compounds were then diluted 1:100 in RPMI medium. […] of cells were treated by mixing with 10 μL of the compound-containing media (resulting in a final DMSO concentration of 0.1%). The cells were allowed to grow at 37° C. for 120 h. Cells were fixed to the surface by addition of 10% TCA (for adherent growing cells) or 50% TCA (for semi-adherent growing cells or cells growing in suspension). After an hour of incubation at 4° C., plates were washed twice with 400 μL of deionized water and dried. Cells were then stained with 100 μL of 0.04% wt/v SRB. The plates were incubated at room temperature for at least 30 min and washed six times with 1% acetic acid to remove unbound stain. The plates were left to dry at room temperature and bound SRB was solubilized with 100 μL of 10 mM Tris base. Optical density was measured at 492, 520 and 560 nm using a Deelux-LED96 plate reader (Deelux Labortechnik GmbH, Germany).
Cell lines were purchased directly from the ATCC, NCI, CLS, and DSMZ cell line collections. A master bank and working aliquots were prepared. Cells used for the study had undergone less than 20 passages. To rule out potential contamination or wrong assignment, all cell lines were tested by STR analysis. Absence of mycoplasma contamination was confirmed for all cell lines used in the studies.
The cell lines were grown in the media recommended by the suppliers in the presence of 100 U/mL penicillin and 100 μg/mL streptomycin supplied with 10% FCS (PAA, Germany). RPMI 1640, DMEM, and MEM Earle's medium were from PAA (Coelbe, Germany), supplements 2 mM L-glutamine, 1 mM Na-pyruvate and 1% NEAA were from PAA (Coelbe, Germany), 2.5% horse serum, hydrocortisone, transferin, beta-estradiol, selenite and 1 U/mL insulin from Sigma-Aldrich (Munich, Germany). RPMI medium was used for culturing the following cell lines: 5637, 22RV1, 7860, A2780, A431, A549, ACHN, ASPC1, BT20, BXPC3, CAKI1, CLS439, COLO205, COLO678, DLD1, DU145, EFO21, EJ28, HCT15, HS578T, IGROV1, JAR, LOVO, MCF7, MDA MB231, MDA MB435, MDA MB436, MDA MB468, MHHES1, MT3, NCI H292, NCI H358M, NCI H460, NCIH82, OVCAR3, OVCAR4, PANC 1005 (addition of insulin), PBMC, PC3, RDES, SF268, SF295, SKBR3, SK MEL28, SKMEL5, SKOV3, SW620, U2OS, UMUC3, and U031.
DMEM medium was used to culture A204, A375, A673, C33A, CASKI, HCT116, HEPG2, HS729, HT29, J82, MG63, MIAPACA2 (addition of horse serum), PANC1, PLCPRF5, RD, SAOS2, SKLMS1, SKNAS, SNB75, T24, and TE671.
MEM Earle's medium was used for CACO2, CALU6, HEK293, HELA, HT1080, IMR90, JEG3, JIMT1, SKHEP1, SKNSH, and U87MG. Cell seeding conditions were optimized for each cell line. The cell seeding density varied from 500 to 7000 cells/well depending on their growth characteristics. Peripheral blood mononuclear cells (PBMC) were freshly isolated from whole blood of an anonymous donor through density gradient centrifugation using Ficoll solution (d=1.077). In short, blood was diluted 1:1 with PBS and carefully placed on the Ficoll. After centrifugation 1000×g for 15 min (braking rate 0), the ring containing mainly leucocytes was collected in PBS followed by three times washing with PBS to reduce the platelets. PBMC were seeded at the density 50,000-100,000 cells/well. Cells were grown in 5% CO2 atmosphere in a NB-203XXL incubator (N-BIOTEK Inc., Korea).
Ninety-four cell lines were tested in parallel. Cell growth and treatment were performed in 96 well microtitre plates CELLSTAR® (Greiner Bio-One, Germany). […]

[1] = Homo sapiens, MDA-MB-468, MDAMB468, breast
[2] = Homo sapiens, MG-63, MG63, bone
[3] = Homo sapiens, MHH-ES-1, MHHES1, bone
[4] = Homo sapiens, MIA PaCa-2, MIAPACA2, pancreas
[5] = Homo sapiens, MINO, hematological
[6] = Homo sapiens, MV4-11, MV4-11, hematological
[7] = Homo sapiens, NCI-H460, NCIH460, lung
[8] = Homo sapiens, OVCAR-3, OVCAR3, ovary
[9] = Homo sapiens, OVCAR-4, OVCAR4, ovary
[10] = Homo sapiens, PANC-1, PANC1, pancreas
[11] = Homo sapiens, PLC-PRF-5, PLCPRF5, liver
[12] = Homo sapiens, Panc1005, PANC1005, pancreas
[13] = Homo sapiens, SAOS-2, SAOS2, bone
[14] = Homo sapiens, SF-268, SF268, brain
[15] = Homo sapiens, SF-295, SF295, brain
[16] = Homo sapiens, SK-BR-3, SKBR3, breast
[17] = Homo sapiens, SK-HEP1, SKHEP1, liver
[18] = Homo sapiens, SK-LMS-1, SKLMS1, uterus
[19] = Homo sapiens, SK-MEL-5, SKMEL5, skin
[20] = Homo sapiens, SK-MEL-28, SKMEL28, skin
[21] = Homo sapiens, SK-N-AS, SKNAS, brain
[22] = Homo sapiens, SK-N-SH, SKNSH, brain
[23] = Homo sapiens, SK-OV-3, SKOV3, ovary
[24] = Homo sapiens, SNB-75, SNB75, brain
[25] = Homo sapiens, SU-DHL-6, SU-DHL-6, hematological
[26] = Homo sapiens, SW-620, SW620, colon
[27] = Homo sapiens, TE-671, TE671, muscle
[28] = Homo sapiens, THP-1, THP-1, hematological
[29] = Homo sapiens, U-87 MG, U87MG, brain
[30] = Homo sapiens, UMUC3, UMUC3, bladder
[31] = Homo sapiens, UO-31, UO31, kidney
[32] = Homo sapiens, WSU-NHL, hematological

CC(=O)N[C@@H](Cc1c[nH]c2ccccc12)C(=O)N[C@@H](CCC(=O)C=[N+]=[N-])C(=O)OC(C)C [Compound 1, Isopropyl (S)-2-((S)-2-acetamido-3-(1H-indol-3-yl)propanamido)-6-diazo-5-oxohexanoate]
GI50 [1]: 0.531 µM
IC50 [1]: 0.789 µM
GI50 [2]: 4.6 µM
IC50 [2]: 5.38 µM
GI50 [3]: 6.19 µM
IC50 [3]: 6.34 µM
GI50 [4]: 3.29 µM
IC50 [4]: 3.56 µM
GI50 [5]: 0.61 µM
IC50 [5]: 0.798 µM
GI50 [6]: 0.976 µM
IC50 [6]: 1.03 µM
GI50 (Homo sapiens, NCI-H292, NCIH292, lung): 14.5 µM
GI50 [7]: 4.74 µM
IC50 [7]: 5.01 µM
GI50 [8]: 1.65 µM
IC50 [8]: 4.06 µM
GI50 [9]: 0.812 µM
IC50 [9]: 1.67 µM
GI50 [10]: 7.98 µM
IC50 [10]: 8.46 µM
GI50 [11]: 6.15 µM
IC50 [11]: 7.45 µM
GI50 [12]: 14.8 µM
IC50 [12]: 28.9 µM
GI50 (Homo sapiens, Ramos, hematological): 6.63 µM
GI50 [13]: 2.8 µM
IC50 [13]: 20.8 µM
GI50 [14]: 7.37 µM
IC50 [14]: 9.53 µM
GI50 [15]: 9.73 µM
IC50 [15]: 10.9 µM
GI50 [16]: 2.65 µM
IC50 [16]: 3.91 µM
GI50 [17]: 3.93 µM
IC50 [17]: 5.12 µM
GI50 [18]: 1.34 µM
IC50 [18]: 2.15 µM
GI50 [19]: 2.05 µM
IC50 [19]: 2.9 µM
GI50 [20]: 1.23 µM
IC50 [20]: 1.61 µM
GI50 [21]: 7.62 µM
IC50 [21]: 18.6 µM
GI50 [22]: 8.18 µM
IC50 [22]: 9.15 µM
GI50 [23]: 1.26 µM
IC50 [23]: 3.81 µM
GI50 [24]: 18.4 µM
IC50 [24]: 40 µM
GI50 (Homo sapiens, SU-DHL10, SU-DHL-10, hematological): 4.18 µM
GI50 [25]: 0.971 µM
IC50 [25]: 1.13 µM
GI50 [26]: 7.96 µM
IC50 [26]: 8.58 µM
GI50 [27]: 5.44 µM
IC50 [27]: 5.97 µM
GI50 [28]: 1.99 µM
IC50 [28]: 2.25 µM
GI50 (Homo sapiens, U2OS, bone): 10 µM
IC50 (Homo sapiens, U2OS, bone): 12.9 µM
GI50 [29]: 2.38 µM
IC50 [29]: 4.1 µM
GI50 [30]: 2.32 µM
IC50 [30]: 2.75 µM
GI50 [31]: 17.7 µM
IC50 [31]: 44.9 µM
GI50 [32]: 1.16 µM
IC50 [32]: 1.5 µM
IC50 (J82, bladder): 15.9 µM
IC50 (JAR, placenta): 2.41 µM
IC50 (MT3, breast): 1.46 µM
GI50 (NCI-H358M, NCIH358M, lung): 3.31 µM
IC50 (NCI-H358M, NCIH358M, lung): 8.92 µM
GI50 (PBMC, 5637, bladder): 2.15 µM
GI50 (PBMC, CLS439, bladder): 7.57 µM
GI50 (PBMC, HS729, muscle): 10.1 µM
GI50 (PBMC, J82, bladder): 14.2 µM
GI50 (PBMC, JAR, placenta): 2.23 µM
GI50 (PBMC, MT3, breast): 1.1 µM
GI50 (PBMC, PC3, prostate): 11.5 µM
GI50 (PBMC, RD, muscle): 4.05 µM
GI50 (PBMC, T24, bladder): 4.71 µM
IC50 (PC3, prostate): 17.9 µM
IC50 (RD, muscle): 5.44 µM
GI50 (RD-ES, RDES, bone): 3.95 µM
IC50 (RD-ES, RDES, bone): 5.48 µM
IC50 (T24, bladder): 4.95 µM

Reference: patent US20220117938A1, “COMBINATON THERAPY WITH A DON PRODRUG AND AN IMMUNE CHECKPOINT INHIBITOR” (DRACEN PHARMACEUTICALS, INC., priority 2019, published 2022)
